Patent US7081467B2, “C2-disubstituted indan-1-ones and their derivatives, processes for their preparation and their use as pharmaceuticals” (Sanofi-aventis Deutschland GmbH, priority 2001, dated 2006)

How the values were obtained:
female NMRI mice = test: Anorectic action: cumulative milk consumption after 24 h feed removal; type: in vivo; details: feed removed 24 h, dose 20 mg/kg (ip or po, route not specified)
Description: The anorectic action was tested on female NMRI mice. After removal of feed for 24 hours, the preparation to be tested was administered intraperitoneally (ip) or by gavage (po). The animals were housed singly and, with free access to drinking water, they were offered evaporated milk 30 minutes after administration of the preparation. The consumption of evaporated milk was determined and the general behavior of the animals was monitored every half an hour for 7 hours. The measured milk consumption was compared to that of vehicle-treated control animals.

CS(=O)(=O)C1(F)Cc2cc(Cl)ccc2C1=O (stereo not drawn) [Example 1, 5-Chloro-2-fluoro-2-methanesulfonylindan-1-one]
Reduction in cumulative milk consumption as % of the control (female NMRI mice; compared with vehicle-treated control animals): 48%
cumulative milk consumption by treated animals (female NMRI mice; evaporated milk offered 30 min after administration, monitored for 7 hours): 5/2.00 ml
melting point: 150 °C
